The values that follow come from patent US20060177444A1, “Concomitant drug as therapeutic agent for inflammatory bowel disease” (priority 2003, published 2006).

The test system of this assay is male Balb/c mice. Kind of assay: TNBS-induced experimental colitis in mice, lesion length of the colon. In kind it is in vivo. The settings on record: for improvement of colitis compared with combination administration, in words: single administration at a dose higher than that in the combination administration. Here is the method: A total of 0.08 ml of a 1:1 (v/v) mixture of 10% picrylsulfonic acid (TNBS) solution and ethanol was administered to anesthetized male Balb/c mice (Charles River Japan, Inc., Yokohama, Japan) according to previous reports (J Exp Med 2001; 193: p 827-38, J Exp Med 2001; 193: p 25-34) to thereby induce experimental colitis. The colon (large intestine) was sampled two days later, and the length of a flare site accompanied with ulcer or hyperplasia near to the lumen was measured and was defined as the lesion length. The inhibition (%) was calculated from the average lesion length of a treated group, compared with the average lesion length of a control group. The test compound suspended in a 0.5% solution of methylcellulose was orally administered to the mice via sonde once a day from two days before the beginning of colitis induction.

For the compound `CC(C)O[C@@H](Cc1cccc(CNC(=O)OCc2cccc(OC(F)(F)F)c2)c1)C(=O)O` [Compound 1, 3-(3-{[3-trifluoromethoxybenzyloxycarbonylamino]methyl}phenyl)-2(S)-isopropoxypropanoic acid], the “improvement of colitis compared with combination administration, in words” value was “improves colitis less effectively”. Also, for the setting “Compound 1 0.3 mg/kg/day, oral, once a day”, the “Inhibition (%) of average lesion length” value turned out to be 8%. Under “Compound 1 1 mg/kg/day, oral, once a day”, the “Inhibition (%) of average lesion length” value is given as 21%. The “Inhibition (%) of average lesion length” value (Compound 1 3 mg/kg/day, oral, once a day (Table 2)) worked out at 38%. Besides, the “Inhibition (%) of average lesion length” value (Compound 1 10 mg/kg/day, oral, once a day) came out at 34%. In addition, for the setting “Table 5: Compound 1 3 mg/kg/day alone”, the “Inhibiton (%) of average lesion length” value is on record as 29%. In addition, where the note is “single administration”, the “improvement of colitis, in words” value is reported as “partially improves colitis”.

For `CN(CCOc1ccc(CC2SC(=O)NC2=O)cc1)c1ccccn1` (centres unmarked) [Rosiglitazone, rosiglitazone], the “Inhibition (%) of average lesion length” value by setting is: (Rosiglitazone 1 mg/kg/day, oral, once a day, single administration) 23%; (Rosiglitazone 10 mg/kg/day, oral, once a day, single administration) 37%.

With `O=C(O)c1cc(N=Nc2ccc(S(=O)(=O)Nc3ccccn3)cc2)ccc1O` [Sulfasalazine, 2-hydroxy-5-[[4-[(2-pyridinylamino)sulfonyl]phenyl]-azo]benzoic acid], the “improvement of colitis compared with combination administration, in words” value is recorded as “improves colitis less effectively”. Moreover, for the setting “Sulfasalazine 100 mg/kg/day, oral, single administration (Table 3)”, the “Inhibiton (%) of average lesion length” value amounted to 40%. Moreover, under “Sulfasalazine 300 mg/kg/day, oral, single administration”, the “Inhibiton (%) of average lesion length” value came to 35%. Besides, the “Inhibiton (%) of average lesion length” value (Table 5: Sulfasalazine 100 mg/kg/day alone) is 43%. Further, the “improvement of colitis, in words” value (single administration) is “partially improves colitis”.
